In patent publication US9340590B2 (priority 2011, dated 2016):
pIC50: −log10 of the molar value. Read-outs that look alike come from different tables or passages of the source. Positions of bridges follow the written chain, without caps; N, C: chain ends. Residues, ends and D or L forms follow the SMILES beside them.

Legend:
Assay in all cases: cell-based
[1] = target: hNav1.5 (Homo sapiens, UniProt Q14524); conditions: IonWorks Quattro, read-out: IWQ Use Nav1.5
[2] = target: hNav1.3 (Homo sapiens, UniProt Q9NY46); conditions: IonWorks Quattro, read-out: IWQ Use Nav1.3
[3] = target: hNav1.7 (Homo sapiens, UniProt Q15858); type: cell-based; conditions: IonWorks Quattro, read-out: IWQ Use Nav1.7
Sequence of hNav1.7 (Q15858 whole entry, looked up): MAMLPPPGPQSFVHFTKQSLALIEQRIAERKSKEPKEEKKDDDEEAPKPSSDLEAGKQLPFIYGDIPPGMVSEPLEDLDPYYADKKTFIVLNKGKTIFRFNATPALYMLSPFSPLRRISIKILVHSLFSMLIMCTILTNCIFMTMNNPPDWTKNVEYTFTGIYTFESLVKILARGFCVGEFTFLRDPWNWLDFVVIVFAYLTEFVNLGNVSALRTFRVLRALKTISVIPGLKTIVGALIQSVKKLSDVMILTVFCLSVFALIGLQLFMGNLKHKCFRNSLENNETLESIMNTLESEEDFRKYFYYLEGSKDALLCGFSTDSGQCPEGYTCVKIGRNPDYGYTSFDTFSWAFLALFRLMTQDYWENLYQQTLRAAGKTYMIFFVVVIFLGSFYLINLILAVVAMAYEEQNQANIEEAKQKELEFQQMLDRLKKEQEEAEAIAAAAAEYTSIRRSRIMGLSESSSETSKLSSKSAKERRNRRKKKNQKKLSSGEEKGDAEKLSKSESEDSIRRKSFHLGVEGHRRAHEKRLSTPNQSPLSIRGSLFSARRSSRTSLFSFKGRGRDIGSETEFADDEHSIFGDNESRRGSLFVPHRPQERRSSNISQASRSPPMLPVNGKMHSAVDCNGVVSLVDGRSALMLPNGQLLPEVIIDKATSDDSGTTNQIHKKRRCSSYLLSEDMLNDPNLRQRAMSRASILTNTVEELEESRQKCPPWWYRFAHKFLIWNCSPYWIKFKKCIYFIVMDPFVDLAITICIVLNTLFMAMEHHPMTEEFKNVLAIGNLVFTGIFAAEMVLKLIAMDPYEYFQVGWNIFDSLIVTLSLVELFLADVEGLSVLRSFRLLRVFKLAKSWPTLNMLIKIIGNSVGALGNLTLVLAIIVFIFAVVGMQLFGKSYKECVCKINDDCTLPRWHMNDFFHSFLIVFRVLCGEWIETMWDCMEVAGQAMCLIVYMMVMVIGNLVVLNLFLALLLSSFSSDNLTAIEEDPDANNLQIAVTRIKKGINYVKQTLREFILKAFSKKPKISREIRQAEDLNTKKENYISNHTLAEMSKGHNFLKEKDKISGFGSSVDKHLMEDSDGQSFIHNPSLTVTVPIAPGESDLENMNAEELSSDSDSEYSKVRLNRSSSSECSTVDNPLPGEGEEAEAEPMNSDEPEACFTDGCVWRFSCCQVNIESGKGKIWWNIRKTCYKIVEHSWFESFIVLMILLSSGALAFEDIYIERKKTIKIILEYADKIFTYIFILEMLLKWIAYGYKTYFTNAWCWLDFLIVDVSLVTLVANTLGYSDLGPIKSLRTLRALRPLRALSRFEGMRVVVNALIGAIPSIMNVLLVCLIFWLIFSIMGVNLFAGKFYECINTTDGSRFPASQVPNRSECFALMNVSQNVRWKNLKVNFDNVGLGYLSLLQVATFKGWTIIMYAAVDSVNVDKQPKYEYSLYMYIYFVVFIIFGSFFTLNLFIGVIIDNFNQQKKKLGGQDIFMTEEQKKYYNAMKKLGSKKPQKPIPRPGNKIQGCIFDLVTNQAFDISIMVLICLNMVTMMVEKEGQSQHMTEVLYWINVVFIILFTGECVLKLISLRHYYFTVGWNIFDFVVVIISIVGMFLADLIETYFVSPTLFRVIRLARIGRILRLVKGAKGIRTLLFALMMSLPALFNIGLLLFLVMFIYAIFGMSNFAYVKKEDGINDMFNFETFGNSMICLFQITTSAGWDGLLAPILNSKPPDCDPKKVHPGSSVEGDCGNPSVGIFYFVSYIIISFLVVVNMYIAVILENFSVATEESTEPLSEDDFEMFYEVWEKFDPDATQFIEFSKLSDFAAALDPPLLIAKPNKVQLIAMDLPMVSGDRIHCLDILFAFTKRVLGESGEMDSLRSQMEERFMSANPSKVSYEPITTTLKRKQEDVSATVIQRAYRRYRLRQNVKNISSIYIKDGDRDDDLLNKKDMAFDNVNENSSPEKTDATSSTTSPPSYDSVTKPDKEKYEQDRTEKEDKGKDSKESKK

Sequence of hNav1.5 (Q14524 whole entry, looked up): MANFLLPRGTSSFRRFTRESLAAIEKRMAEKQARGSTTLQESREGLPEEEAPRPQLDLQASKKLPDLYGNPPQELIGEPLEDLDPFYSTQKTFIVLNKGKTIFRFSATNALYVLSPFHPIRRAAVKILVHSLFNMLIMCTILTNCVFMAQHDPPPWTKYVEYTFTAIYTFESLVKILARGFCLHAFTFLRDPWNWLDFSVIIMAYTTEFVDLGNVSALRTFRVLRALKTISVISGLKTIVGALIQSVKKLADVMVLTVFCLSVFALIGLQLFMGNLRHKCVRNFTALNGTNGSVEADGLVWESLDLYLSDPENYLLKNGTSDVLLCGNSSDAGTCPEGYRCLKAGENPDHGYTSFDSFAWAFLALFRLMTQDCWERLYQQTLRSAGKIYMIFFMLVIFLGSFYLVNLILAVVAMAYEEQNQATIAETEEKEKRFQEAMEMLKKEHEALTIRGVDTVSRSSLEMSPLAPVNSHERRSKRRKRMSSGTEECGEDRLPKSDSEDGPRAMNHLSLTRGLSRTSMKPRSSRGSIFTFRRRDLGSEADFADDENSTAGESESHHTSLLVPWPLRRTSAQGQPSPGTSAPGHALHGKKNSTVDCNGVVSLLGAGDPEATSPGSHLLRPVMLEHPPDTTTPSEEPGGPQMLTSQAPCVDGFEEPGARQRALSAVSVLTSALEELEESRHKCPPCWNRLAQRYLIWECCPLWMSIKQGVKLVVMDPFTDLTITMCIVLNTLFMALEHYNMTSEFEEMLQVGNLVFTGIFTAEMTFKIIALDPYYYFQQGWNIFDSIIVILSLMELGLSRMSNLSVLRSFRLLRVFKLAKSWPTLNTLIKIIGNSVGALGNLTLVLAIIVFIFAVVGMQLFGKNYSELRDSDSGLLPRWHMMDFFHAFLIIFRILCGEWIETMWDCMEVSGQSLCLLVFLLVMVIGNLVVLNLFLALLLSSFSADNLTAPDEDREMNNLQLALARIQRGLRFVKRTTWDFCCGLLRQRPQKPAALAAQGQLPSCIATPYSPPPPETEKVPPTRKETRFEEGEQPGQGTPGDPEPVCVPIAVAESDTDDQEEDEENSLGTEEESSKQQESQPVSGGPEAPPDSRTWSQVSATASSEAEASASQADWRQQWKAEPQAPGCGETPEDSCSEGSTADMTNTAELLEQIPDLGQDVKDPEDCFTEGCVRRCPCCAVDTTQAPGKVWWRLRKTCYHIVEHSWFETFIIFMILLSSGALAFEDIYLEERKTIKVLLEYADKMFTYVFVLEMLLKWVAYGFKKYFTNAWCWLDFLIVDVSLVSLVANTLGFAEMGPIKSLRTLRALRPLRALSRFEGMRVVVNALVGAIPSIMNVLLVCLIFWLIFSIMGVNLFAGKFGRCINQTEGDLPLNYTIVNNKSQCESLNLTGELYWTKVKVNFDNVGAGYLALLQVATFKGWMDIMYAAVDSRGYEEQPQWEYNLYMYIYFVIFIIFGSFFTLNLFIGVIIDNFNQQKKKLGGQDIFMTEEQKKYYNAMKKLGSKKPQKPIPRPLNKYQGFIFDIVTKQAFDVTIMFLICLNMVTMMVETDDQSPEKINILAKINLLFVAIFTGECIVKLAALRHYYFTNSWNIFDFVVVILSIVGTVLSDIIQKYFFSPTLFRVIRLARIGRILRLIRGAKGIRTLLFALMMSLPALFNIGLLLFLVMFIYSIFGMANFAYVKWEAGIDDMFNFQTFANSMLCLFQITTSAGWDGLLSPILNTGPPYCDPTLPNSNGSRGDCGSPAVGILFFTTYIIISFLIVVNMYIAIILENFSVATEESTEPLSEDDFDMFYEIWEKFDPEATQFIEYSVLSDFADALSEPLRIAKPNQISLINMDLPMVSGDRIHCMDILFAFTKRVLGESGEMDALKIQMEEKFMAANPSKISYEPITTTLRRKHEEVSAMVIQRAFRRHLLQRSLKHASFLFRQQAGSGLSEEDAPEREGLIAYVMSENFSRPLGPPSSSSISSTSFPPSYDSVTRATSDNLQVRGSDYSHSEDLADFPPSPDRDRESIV

Structure (SMILES)	pIC50 ([1]; Use)	pIC50 ([2]; Use)	pIC50 ([3]; Use)	pIC50 ([1]; Table 24, use, […])	pIC50 ([2]; Table 24, use, […])	pIC50 ([3]; Table 24, use, […])
CSCC[C@@H]1NC(=O)[C@H](Cc2ccccc2)NC(=O)CNC(=O)[C@H](CC(C)C)NC(=O)[C@@H](NC(=O)[C@@H](N)CC(=O)O)CSSC[C@@H]2NC(=O)[C@@H]3CSSC[C@@H](C(=O)N[C@@H](CCCCN)C(=O)N[C@@H](Cc4ccc(O)cc4)C(=O)N[C@H](C(=O)N[C@@H](Cc4ccccc4)C(N)=O)C(C)C)NC(=O)[C@H](Cc4c[nH]c5ccccc45)NC(=O)[C@H](CCCCN)NC(=O)[C@H](Cc4cnc[nH]4)NC(=O)[C@H]([C@@H](C)O)NC(=O)[C@H](CCCNC(=N)N)NC(=O)[C@H](CO)NC(=O)[C@H](CSSC[C@H](NC(=O)[C@H](CCCCN)NC(=O)[C@H](CCCNC(=N)N)NC1=O)C(=O)N[C@@H](CCCCN)C(=O)N1CCC[C@H]1C(=O)N[C@@H](CC(=O)O)C(=O)N[C@@H](CC(N)=O)C(=O)N[C@@H](CC(=O)O)C(=O)N[C@@H](CCCCN)C(=O)N3)NC(=O)[C@H](C(C)C)NC(=O)[C@H](CC(C)C)NC(=O)[C@H](CC(N)=O)NC(=O)[C@@H]1CCCN1C(=O)[C@H](CCCNC(=N)N)NC2=O [compound 41] (H-DCLGFMRKCKPDNDKCCRPNLVCSRTHKWCKYVF-NH2; disulfide 2-17, 9-23, 16-30)	5.05	6.82	6.62			
CC[C@H](C)[C@@H]1NC(=O)[C@@H]2CSSC[C@@H]3NC(=O)[C@H](C(C)C)NC(=O)[C@H](CC(C)C)NC(=O)[C@H](CC(N)=O)NC(=O)[C@@H]4CCCN4C(=O)[C@H](CCCNC(=N)N)NC(=O)[C@H](CSSC[C@H](NC(=O)[C@@H](N)CC(=O)O)C(=O)N[C@@H](CC(C)C)C(=O)NCC(=O)N[C@@H](Cc4ccccc4)C(=O)N[C@@H](CCSC)C(=O)N[C@@H](CCCNC(=N)N)C(=O)N[C@@H](CCCCN)C(=O)N2)NC(=O)[C@H](CSSC[C@@H](C(=O)N[C@@H](CCCCN)C(=O)N[C@@H](Cc2ccc(O)cc2)C(=O)N[C@H](C(=O)N[C@@H](Cc2ccccc2)C(N)=O)C(C)C)NC(=O)[C@H](Cc2c[nH]c4ccccc24)NC(=O)[C@H](CCCCN)NC(=O)[C@H](Cc2cnc[nH]2)NC(=O)[C@H]([C@@H](C)O)NC(=O)[C@H](CCCNC(=N)N)NC(=O)[C@H](CO)NC3=O)NC(=O)[C@H](CCCCN)NC(=O)[C@H](CC(=O)O)NC(=O)[C@H](CC(N)=O)NC(=O)[C@H](CC(=O)O)NC(=O)[C@H](C)NC1=O [compound 46] (H-DCLGFMRKCIADNDKCCRPNLVCSRTHKWCKYVF-NH2; disulfide 2-17, 9-23, 16-30)	4.79	6.74	6.68			
CC[C@H](C)[C@@H]1NC(=O)[C@@H]2CSSC[C@@H]3NC(=O)[C@H](C(C)C)NC(=O)[C@H](CC(C)C)NC(=O)[C@H](CC(N)=O)NC(=O)[C@@H]4CCCN4C(=O)[C@H](CCCNC(=N)N)NC(=O)[C@H](CSSC[C@H](NC(=O)[C@@H](N)CC(=O)O)C(=O)N[C@@H](CC(C)C)C(=O)NCC(=O)N[C@@H](Cc4ccccc4)C(=O)N[C@@H](CCSC)C(=O)N[C@@H](CCCNC(=N)N)C(=O)N[C@@H](CCCCN)C(=O)N2)NC(=O)[C@H](CSSC[C@@H](C(=O)N[C@@H](CCCCN)C(=O)N[C@@H](Cc2ccc(O)cc2)C(=O)N[C@H](C(=O)N[C@@H](Cc2ccccc2)C(N)=O)C(C)C)NC(=O)[C@H](C)NC(=O)[C@H](CCCCN)NC(=O)[C@H](Cc2cnc[nH]2)NC(=O)[C@H]([C@@H](C)O)NC(=O)[C@H](CCCNC(=N)N)NC(=O)[C@H](CO)NC3=O)NC(=O)[C@H](CCCCN)NC(=O)[C@H](CC(=O)O)NC(=O)[C@H](CC(N)=O)NC(=O)[C@H](CC(=O)O)NC(=O)[C@@H]2CCCN2C1=O [compound 47] (H-DCLGFMRKCIPDNDKCCRPNLVCSRTHKACKYVF-NH2; disulfide 2-17, 9-23, 16-30)				4.79	4.56	4.93
